Data from patent US8541363B2, “Pyruvamide compounds as inhibitors of dust mite group 1 peptidase allergen and their use” (St George's Hosptial Medical School, priority 2010, dated 2013).

molecular target: Der p 1 (Dermatophagoides pteronyssinus (European house dust mite), UniProt P08176); experiment: Der p 1 enzyme activity assay (FRET fluorogenic substrate); assay type: biochemical; details: Der p 1 IC50
Experimental: The fluorogenic substrate used for measuring Der p 1 proteolytic activity was 2-aminobenzoylvalylalanylnorleucylseryl-(3-nitro)tyrosinyl aspartamide.
Test compounds were dissolved in dry DMSO and maintained at 4° C. as stock solutions until being diluted for use in screening assays. Final concentration of DMSO in all enzymatic assays was 0.5% v/v.
Reaction mixtures were assembled in a 96-well plate format (Perkin Elmer Optiplate 96F, Perkin Elmer LAS, Seer Green, Buckinghamshire, UK) using a Perkin Elmer MultiPROBE II Plus HTS EX robot with Gripper attachment. […] Dithiothreitol (DTT, 10 μL/well, 1 mM final concentration) was then added together with 10 μL of Der p 1 dissolved at 2.5 μg/mL in reaction buffer supplemented with 1 mM DTT. […] The plate was immediately transferred to a fluorescence plate reader (Perkin Elmer Fusion Alpha-FP or Perkin Elmer Envision) equipped with a temperature-controlled carrier set at 30° C. and the reaction followed by excitation/emission at 330/420 nm.
Inhibitory activity was analysed from progress curves of reactions in the presence of a range of inhibitor concentrations.
Initial velocity in each well was converted to fractional activity by Equation 1: Fractional activity=(Initial rate at inhibitor concentration[X]/Initial rate at inhibitor concentration zero)*100 Equation 1:
Then, IC50 was determined by fitting the data of fractional activity and inhibitor concentration to a 4-parameter logistic curve, using Equation 2: V=Vmin+[Vmax−Vmin]/[1+(X/IC50)Hillslope] […] Biological Data—Der p 1 Enzyme Assay

Der p 1, sequence (P08176 99-320): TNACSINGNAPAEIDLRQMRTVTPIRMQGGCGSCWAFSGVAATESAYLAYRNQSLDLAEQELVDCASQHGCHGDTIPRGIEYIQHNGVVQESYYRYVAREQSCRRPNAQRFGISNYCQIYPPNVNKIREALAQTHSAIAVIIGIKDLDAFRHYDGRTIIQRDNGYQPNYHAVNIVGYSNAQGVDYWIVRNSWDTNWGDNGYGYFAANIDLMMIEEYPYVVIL

Compound | IC50 [nM]
CC(C)[C@H](NC(=O)[C@H](C)NC(=O)[C@@H](NC(=O)c1ccccc1)C(C)(C)C)C(=O)C(=O)NC1CN2CCC1CC2 (some centres unmarked) [PVA-119] | < 200
CC(C)[C@H](NC(=O)[C@H](C)NC(=O)[C@@H](NC(=O)c1ccccc1)C(C)(C)C)C(=O)C(=O)N[C@@H]1CN2CCC1CC2 [PVA-120] | < 200
CC(C)[C@H](NC(=O)[C@H](C)NC(=O)[C@@H](NC(=O)c1ccccc1)C12CC3CC(CC(C3)C1)C2)C(=O)C(=O)NCC(=O)N1CCN(C)CC1 [PVA-146] | < 20

same assay, conditions: threshold stated in text; read-out: Der p 1 IC50

Compound | IC50 [nM]
CC(C)[C@H](NC(=O)[C@H](C)NC(=O)[C@@H](NC(=O)c1ccccc1)C(C)(C)c1ccccc1)C(=O)C(=O)NCc1ccccc1 [PVA-121] | < 200
CC(C)[C@H](NC(=O)[C@H](C)NC(=O)[C@@H](NC(=O)N1CCN(C)CC1)C(C)(C)C)C(=O)C(=O)NCc1ccccc1 [PVA-122] | < 200
CC(C)[C@H](NC(=O)[C@H](C)NC(=O)C1Cc2ccccc2N1C(=O)c1ccccc1)C(=O)C(=O)NCc1ccccc1 (some centres unmarked) [PVA-123] | < 200
CC(C)[C@H](NC(=O)[C@H](C)NC(=O)[C@@H](NC(=O)c1ccccc1)C(C)(C)C)C(=O)C(=O)NCc1cncn1C [PVA-124] | < 200
CC(C)[C@H](NC(=O)[C@H](C)NC(=O)[C@@H](NC(=O)c1ccccc1)C(C)(C)C)C(=O)C(=O)N[C@H](C)C(=O)N1CCN(C)CC1 [PVA-125] | < 200
Cc1cc(CNC(=O)C(=O)[C@@H](NC(=O)[C@H](C)NC(=O)[C@@H](NC(=O)c2ccccc2)C(C)(C)C)C(C)C)no1 [PVA-126] | < 200
CC(C)[C@H](NC(=O)[C@H](C)NC(=O)[C@@H](NC(=O)c1ccccc1)C(C)(C)C)C(=O)C(=O)N[C@H](C(=O)N1CCN(C)CC1)C(C)C [PVA-127] | < 200
CC(C)[C@H](NC(=O)[C@H](C)NC(=O)[C@@H](NC(=O)c1ccncc1)C(C)(C)C)C(=O)C(=O)NCc1ccccc1 [PVA-128] | < 20
CC(C)[C@H](NC(=O)[C@H](C)NC(=O)[C@@H](N1Cc2ccccc2C1=O)C(C)(C)C)C(=O)C(=O)NCc1ccccc1 [PVA-129] | < 20
CC(C)[C@H](NC(=O)[C@H](C)NC(=O)[C@@H](NC(=O)c1cccc(C(=O)O)c1)C(C)(C)C)C(=O)C(=O)NCC(=O)N1CCN(C)CC1 [PVA-130] | < 20
CC(C)[C@H](NC(=O)[C@H](C)NC(=O)[C@@H](NC(=O)c1ccc(C(=O)O)cc1)C(C)(C)C)C(=O)C(=O)NCC(=O)N1CCN(C)CC1 [PVA-131] | < 200
CC(C)[C@H](NC(=O)[C@H](C)NC(=O)[C@@H](NC(=O)c1ccccc1)C(C)(C)C)C(=O)C(=O)N[C@H](C)c1ccccc1 [PVA-132] | < 20
CC(C)[C@H](NC(=O)[C@H](C)NC(=O)[C@@H](NC(=O)c1ccccc1)C(C)(C)C)C(=O)C(=O)N[C@@H](C)c1ccccc1 [PVA-133] | < 200
CC(C)[C@H](NC(=O)[C@H](C)NC(=O)[C@@H](NC(=O)c1ccccc1)C(C)(C)C)C(=O)C(=O)NCc1ccc(=O)[nH]c1 [PVA-134] | < 20
CC(C)[C@H](NC(=O)[C@H](C)NC(=O)[C@@H](NC(=O)c1ccccc1)C(C)(C)C)C(=O)C(=O)NCc1ccc(S(N)(=O)=O)cc1 [PVA-135] | < 20
CC(C)[C@H](NC(=O)[C@H](C)NC(=O)[C@@H](NC(=O)c1ccccc1C(=O)O)C(C)(C)C)C(=O)C(=O)NCC(=O)N1CCN(C)CC1 [PVA-136] | < 20
CC(C)[C@H](NC(=O)[C@H](C)NC(=O)[C@H](Cc1cccc2ccccc12)NC(=O)c1ccccc1)C(=O)C(=O)NCC(=O)N1CCN(C)CC1 [PVA-137] | < 20
CC(C)[C@H](NC(=O)[C@H](C)NC(=O)[C@H](Cc1cccc2ccccc12)NC(=O)c1cccc2ccccc12)C(=O)C(=O)NCC(=O)N1CCN(C)CC1 [PVA-138] | < 200
CC(C)[C@H](NC(=O)[C@H](C)NC(=O)C1CCCN1C(=O)c1ccccc1)C(=O)C(=O)NCC(=O)N1CCN(C)CC1 (some centres unmarked) [PVA-140] | < 2000
Cc1cc(C(=O)N[C@H](C(=O)N[C@@H](C)C(=O)N[C@H](C(=O)C(=O)NC2CC2)C(C)C)C(C)(C)C)[nH]n1 [PVA-141] | < 200
CC(C)[C@H](NC(=O)[C@H](C)NC(=O)[C@@H](NC(=O)c1ccccc1)C(C)(C)c1ccccc1)C(=O)C(=O)NC1CC1 [PVA-142] | < 200
CC(C)[C@H](NC(=O)[C@H](C)NC(=O)[C@@H](NC(=O)c1ccccc1)C(C)(C)c1ccccc1)C(=O)C(N)=O [PVA-143] | < 20
CC(C)[C@H](NC(=O)[C@H](C)NC(=O)[C@@H](NC(=O)c1ccnc2ccccc12)C(C)(C)C)C(=O)C(=O)NC1CC1 [PVA-144] | < 20
CC(C)[C@H](NC(=O)[C@H](C)NC(=O)C1CCCN1C(=O)c1ccccc1)C(=O)C(=O)NCC(=O)N1CCN(C)CC1 (some centres unmarked) [PVA-145] | < 200
CC(C)[C@H](NC(=O)[C@H](C)NC(=O)[C@@H](NC(=O)c1ccnc2ccccc12)C12CC3CC(CC(C3)C1)C2)C(=O)C(=O)NCC(=O)N1CCN(C)CC1 [PVA-147] | < 20

Compound | IC50 [nM]
Cc1cc(C(=O)N[C@H](C(=O)N[C@@H](C)C(=O)N[C@H](C(=O)C(N)=O)C(C)C)C(C)(C)C)[nH]n1 [PVA-148] | < 200
CC(C)[C@H](NC(=O)[C@H](C)NC(=O)[C@@H](NC(=O)c1cccc2[nH]ncc12)C(C)(C)C)C(=O)C(=O)NCc1ccccc1 [PVA-149] | < 20
CC(C)[C@H](NC(=O)[C@H](C)NC(=O)[C@@H](NC(=O)c1cccc2ncccc12)C(C)(C)C)C(=O)C(=O)NCc1ccccc1 [PVA-150] | < 20
Cc1ccccc1C[C@H](NC(=O)c1ccncc1)C(=O)N[C@@H](C)C(=O)N[C@H](C(=O)C(=O)NCc1ccccc1)C(C)C [PVA-151] | < 20
CC(C)[C@H](NC(=O)[C@H](C)NC(=O)[C@H](Cc1ccccc1C(F)(F)F)NC(=O)c1ccncc1)C(=O)C(=O)NCc1ccccc1 [PVA-152] | < 200
CC(C)[C@H](NC(=O)[C@H](C)NC(=O)[C@@H](NC(=O)C1CC[N+](C)(C)CC1)C(C)(C)C)C(=O)C(=O)NC1CCCCC1 [PVA-153] | < 20
CC(C)[C@H](NC(=O)[C@H](C)NC(=O)[C@@H](NC(=O)c1ccccc1)C(C)(C)C)C(=O)C(=O)NCc1cccc(C(N)=O)c1 [PVA-155] | < 20
CC(C)[C@H](NC(=O)[C@H](C)NC(=O)[C@@H](NC(=O)c1ccnc2ccccc12)C(C)(C)C)C(=O)C(N)=O [PVA-156] | < 20
CC(C)[C@H](NC(=O)[C@H](C)NC(=O)[C@@H](NC(=O)c1cccc2nc[nH]c12)C(C)(C)C)C(=O)C(=O)NCc1ccccc1 [PVA-157] | < 20
CC(C)[C@H](NC(=O)[C@H](C)NC(=O)[C@@H](NC(=O)c1ccccc1)C(C)(C)C)C(=O)C(=O)NCc1cn[nH]c1 [PVA-158] | < 20
COc1ccc(CNC(=O)C(=O)[C@@H](NC(=O)[C@H](C)NC(=O)[C@H](Cc2ccccc2)NC(=O)c2ccncc2)C(C)C)cc1 [PVA-159] | < 200
COc1cccc(CNC(=O)C(=O)[C@@H](NC(=O)[C@H](C)NC(=O)[C@H](Cc2ccccc2)NC(=O)c2ccncc2)C(C)C)c1 [PVA-160] | < 200
CC(C)[C@H](NC(=O)[C@H](C)NC(=O)[C@H](Cc1ccccc1)NC(=O)c1ccncc1)C(=O)C(=O)NCc1ccc(S(N)(=O)=O)cc1 [PVA-161] | < 20
CC(C)[C@H](NC(=O)[C@H](C)NC(=O)[C@@H](NC(=O)c1ccccc1)C(C)(C)C)C(=O)C(=O)NCc1ccc(N2CCN(C)CC2)cc1 [PVA-162] | < 20
CC(C)[C@H](NC(=O)[C@H](C)NC(=O)[C@@H](NC(=O)c1ccccc1)C(C)(C)C)C(=O)C(=O)NCC1CCN(C)CC1 [PVA-163] | < 200
CC(C)[C@H](NC(=O)[C@H](C)NC(=O)[C@@H](NC(=O)c1ccccc1)C(C)(C)C)C(=O)C(=O)NCc1ccc(CN(C)C)cc1 [PVA-164] | < 20
CC(C)[C@H](NC(=O)[C@H](C)NC(=O)[C@@H](NC(=O)c1ccccc1)C(C)(C)C)C(=O)C(=O)NCc1ccc(CN2CCCCC2)cc1 [PVA-165] | < 200
CC(C)[C@H](NC(=O)[C@H](C)NC(=O)[C@@H](NC(=O)c1ccccc1)C(C)(C)C)C(=O)C(=O)NCc1nccn1C [PVA-166] | < 200
CC(C)[C@H](NC(=O)[C@H](C)NC(=O)[C@@H](NC(=O)c1ccccc1)C(C)(C)C)C(=O)C(=O)NCc1ccnn1C [PVA-167] | < 200
Cc1cc(CNC(=O)C(=O)[C@@H](NC(=O)[C@H](C)NC(=O)[C@@H](NC(=O)c2ccccc2)C(C)(C)C)C(C)C)n(C)n1 [PVA-168] | < 200
CC(C)[C@H](NC(=O)[C@H](C)NC(=O)[C@H](Cc1ccccc1)NC(=O)c1ccncc1)C(=O)C(=O)NCc1cccc(C(N)=O)c1 [PVA-169] | < 20
CC(C)[C@H](NC(=O)[C@H](C)NC(=O)[C@H](Cc1ccccc1)NC(=O)c1ccncc1)C(=O)C(=O)NCC1CCN(C)CC1 [PVA-170] | < 200
CC(C)[C@H](NC(=O)[C@H](C)NC(=O)[C@H](Cc1ccccc1)NC(=O)c1ccncc1)C(=O)C(=O)NCc1cccc(S(N)(=O)=O)c1 [PVA-171] | < 200
CC(C)[C@H](NC(=O)[C@H](C)NC(=O)[C@@H](NC(=O)C1CCN(C(C)C)CC1)C(C)(C)C)C(=O)C(=O)NCc1ccccc1 [PVA-172] | < 200
CC(C)[C@H](NC(=O)[C@H](C)NC(=O)[C@@H](NC(=O)c1cccc(N2CCN(C)CC2)c1)C(C)(C)C)C(=O)C(=O)NCc1ccccc1 [PVA-173] | < 200
